In patent US20250250299A1, “MACROCYCLIC IMMUNOMODULATORS” (Bristol-Myers Squibb Company, priority 2022, published 2025) one finds IC50 data, which are given here for four compounds.

Where a SMILES comes first, the peptide text is derived from it. Bridges are numbered along the chain shown (N, C = ends). [ ]: non-standard residue; d: D form. The star is where a group is joined. X1 = O=C(O)CCCCCCCCCCCCCCCCC(=O)N[C@@H](CCC(=O)NCCOCCOCCOCCOCCOCCOCCOCCOCCOCCOCCOCCn1cc(C*)nn1)C(=O)O; Phe(4-COOH) = N[C@@H](Cc1ccc(C(=O)O)cc1)C(=O)O; Bip = N[C@@H](Cc1ccc(-c2ccccc2)cc1)C(=O)O; Phe(3-Me) = Cc1cccc(C[C@H](N)C(=O)O)c1; C12 diacid = O=C(O)CCCCCCCCCCC(=O)*; 4Pal = N[C@@H](Cc1ccncc1)C(=O)O; Cha = N[C@@H](CC1CCCCC1)C(=O)O; Carboxymethyl = O=C(O)C*; NMeA = CN[C@@H](C)C(=O)O; Nle = CCCC[C@H](N)C(=O)O; Orn = NCCC[C@H](N)C(=O)O; Dab = NCC[C@H](N)C(=O)O; Dap = NC[C@H](N)C(=O)O; AEEA = NCCOCCOCC(=O)O

Broadly, the IC50 is the midpoint of a concentration-inhibition curve.

T1 sequence (Q15116 25-288): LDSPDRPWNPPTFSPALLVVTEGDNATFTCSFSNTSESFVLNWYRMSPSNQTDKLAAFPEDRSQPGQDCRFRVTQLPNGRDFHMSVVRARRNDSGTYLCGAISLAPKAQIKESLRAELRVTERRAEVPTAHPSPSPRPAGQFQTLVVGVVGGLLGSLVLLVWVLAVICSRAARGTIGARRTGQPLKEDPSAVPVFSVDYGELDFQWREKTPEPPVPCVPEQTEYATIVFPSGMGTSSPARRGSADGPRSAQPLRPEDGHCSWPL

This assay has as its target T1, human PD-1 (Jurkat-PD-1 cells; binding of PE-labeled human PD-L1-Ig) (Homo sapiens, UniProt Q15116).
T1 construct: expressed in transfected cells; host or cells: Jurkat (Jurkat-PD-1 / Jurkat-hPD-1)
Kind of assay: Jurkat-PD-1 Cell Binding High-Content Screening Assay. The settings on record: Jurkat cell line over-expressing human PD-1; compound 2 h at 37° C., then PE-labeled PD-L1-Ig 20 nM final, 1 hour; read-out: Jurkat hPD1 PDL1 IC50.
With `Cc1cccc(C[C@@H]2NC(=O)[C@H](CC(=O)O)NC(=O)[C@H](Cc3ccc(OCC(=O)O)cc3)NC(=O)[C@H](CN)NC(=O)CSC[C@@H](C(=O)N[C@@H](CCN)C(=O)NCCOCCOCC(N)=O)NC(=O)[C@H]([C@@H](C)O)NC(=O)[C@H](C(C)C)NC(=O)[C@H](CC3CCCCC3)NC(=O)[C@H](CCN)NC(=O)[C@@H](CC(C)C)NC(=O)[C@H](COCc3cn(CCOCCOCCOCCOCCOCCOCCOCCOCCOCCOCCOCCNC(=O)CC[C@H](NC(=O)CCCCCCCCCCCCCCCCC(=O)O)C(=O)O)nn3)NC(=O)[C@H](Cc3ccc(OCC(=O)O)cc3)NC(=O)[C@H](Cc3ccc(-c4ccccc4)cc3)NC(=O)[C@H](Cc3ccc(OCC(=O)O)cc3)NC2=O)c1` [Compound 1043] ({CH2CO}-[Dap]Y(Carboxymethyl)D[Phe(3-Me)]Y(Carboxymethyl)[Bip]Y(Carboxymethyl)S(X1)[dL][Dab][Cha]VTC[Dab][AEEA]-NH2; thioether N-14), the IC50 worked out at 610 nM.
To `Cc1cccc(C[C@@H]2NC(=O)[C@H](CC(=O)O)NC(=O)[C@H](Cc3ccc(OCC(=O)O)cc3)NC(=O)[C@H](CCN)NC(=O)CSC[C@@H](C(=O)N[C@@H](CCN)C(N)=O)NC(=O)[C@H](Cc3ccc(OCc4cn(CCOCCOCCOCCOCCOCCOCCOCCOCCOCCOCCOCCNC(=O)CC[C@H](NC(=O)CCCCCCCCCCCCCCCCC(=O)O)C(=O)O)nn4)cc3)NC(=O)[C@H](C(C)C)NC(=O)[C@H](CC3CCCCC3)NC(=O)[C@H](CCN)NC(=O)[C@@H](CC(C)C)NC(=O)[C@H](CCCN)NC(=O)[C@H](Cc3ccc(OCC(=O)O)cc3)NC(=O)[C@H](Cc3ccc(-c4ccccc4)cc3)NC(=O)[C@H](Cc3ccc(OCC(=O)O)cc3)NC2=O)c1` [Compound 1012] ({CH2CO}-[Dab]Y(Carboxymethyl)D[Phe(3-Me)]Y(Carboxymethyl)[Bip]Y(Carboxymethyl)[Orn][dL][Dab][Cha]VY(X1)C[Dab]-NH2; thioether N-14) belongs 380 nM.
To `CCCC[C@@H]1NC(=O)CSC[C@@H](C(=O)N[C@@H](CCN)C(N)=O)NC(=O)[C@H](CCC(=O)O)NC(=O)[C@H](C(C)C)NC(=O)[C@H](CC2CCCCC2)NC(=O)[C@H](CCN)NC(=O)[C@@H](CC(C)C)NC(=O)[C@H](CCCN)NC(=O)[C@H](Cc2ccc(C(=O)O)cc2)NC(=O)[C@H](Cc2ccc(-c3ccccc3)cc2)NC(=O)[C@H](Cc2ccc(OCc3cn(CCOCCOCCOCCOCCOCCOCCOCCOCCOCCOCCOCCNC(=O)CC[C@H](NC(=O)CCCCCCCCCCCCCCCCC(=O)O)C(=O)O)nn3)cc2)NC(=O)[C@H](Cc2cccc(C)c2)NC(=O)[C@H](CC(=O)O)NC(=O)[C@H](Cc2ccc(C(=O)O)cc2)NC1=O` [Compound 1020] ({CH2CO}-[Nle][Phe(4-COOH)]D[Phe(3-Me)]Y(X1)[Bip][Phe(4-COOH)][Orn][dL][Dab][Cha]VEC[Dab]-NH2; thioether N-14) belongs 96 nM; to `CC(C)C[C@H]1NC(=O)[C@H](C)N(C)C(=O)[C@H](CCCCNC(=O)CCCCCCCCCCC(=O)O)NC(=O)[C@H](Cc2ccc(-c3ccccc3)cc2)NC(=O)[C@H](C(C)C)NC(=O)[C@H](Cc2c[nH]c3ccccc23)NC(=O)[C@H](CC(=O)O)NC(=O)[C@H](Cc2ccncc2)NC(=O)[C@H](Cc2ccc(OCC(=O)O)cc2)NC(=O)CSC[C@@H](C(N)=O)NC(=O)[C@H](CO)NC(=O)[C@H](C(C)C)NC(=O)[C@H](CC2CCCCC2)NC(=O)[C@H](CC(N)=O)NC1=O` [Compound 1039] ({CH2CO}-Y(Carboxymethyl)[4Pal]DWV[Bip]K(C12 diacid)[NMeA][dL]N[Cha]VSC-NH2; thioether N-14), 870 nM.
